Like-named read-outs stand apart in the source and are kept apart here.
Experiments:
[1] = Ability to form supramolecular gel; type: physicochemical; settings: 1% w/v in solvent, ultrasound 30 min, heated to boiling, cooled to r.t. 24 h
Experimental: The solutions of the studied compounds 8a, 12a, 8b, 12b, 4c, 6c, 6d, and 8d (1%, w/v) in the appropriate solvent were mixed with ultrasound for 30 min, then heated to the boiling points of the used solvents, and then allowed to cool down to the r.t. for 24 h. An example of the resulting gels that were produced from 8a, 4c, 6c, and 6d is shown in the Supplementary Material, Figure S1.

Staphylococcus aureus = assay: Antimicrobial screening, resazurine test; type: cell-based; settings: Staphylococcus aureus, read-out: Inhibition of the microorganism
Experimental: (§1) The resazurine test was used to evaluate this activity.
(§2) The cell inoculum was made in Mueller–Hinton broth (10 mL). Colonies of cells were inoculated from the solid medium that was cultivated for 24 h under optimum conditions. A part of the inoculum was diluted to get suspension with an optical density 0.6 to 0.9 McF. An aliquot amount (1 mL) was taken and diluted with additional volume of the medium (19 mL). The stored solutions of the tested compounds were made at a concentration c = 200 µg.mL^−1. The stored suspensions of the cells, MHB medium, solutions of the antibiotics specific for the given bacteria (vancomycin for S. aureus and E. faecalis, kanamycin for E. coli and P. aeruginosa, and tetracycline for B. cereus), and the solutions of the compounds were pipetted into the microtitration plates. Subsequently, a concentration sequence of the tested compounds was made (c = 100, 50, and 25 µg.mL^−1). The content of the microtitration plates was cultivated for 24 h under optimum conditions for the given bacteria. A solution of resazurine was made, based on a dilution of its stored solution (c = 0.15 mg.mL^−1; 2 mL) into the MHB medium (18 mL). Then, it was pipetted into the microtitration plates that were cultivated for an additional 1 h. Finally, fluorescence measurement (excitation at 560 nm, emission at 590 nm) was made, and the inhibition of the bacterium was determined.
(§3) 2. Antimicrobial screening tests
(§4) Antimicrobial activity of the target molecular ribbons 8a, 12a, 8b, 12b, 4c, 6c, 6d and 8d, and […]
(§5) aeruginosa, Staphylococcus aureus and Enterococcus faecalis. The resazurine test was used to […]
(§6) ribbons which have been achieved in this investigation.
(§7) Table S1. Antimicrobial activity, inhibition of the microorganism [%]
(§8) Comp. Staphylococcus aureus Comp. Escherichia coli […]
(§9) µg·mL-1 µg·mL-1 µg·mL-1 µg·mL-1 µg·mL-1 µg·mL-1
(§10) Comp. Bacillus cereus Comp. Pseudomonas aeruginosa

Pseudomonas aeruginosa = assay: Antimicrobial screening, resazurine test; type: cell-based
Experimental: as §1, §2, §3, §4, §5, §6, §7, §8, §9, §10

Escherichia coli = assay: Antimicrobial screening, resazurine test; type: cell-based; settings: Escherichia coli, read-out: Inhibition of the microorganism
Experimental: as §1, §2, §3, §4, §5, §6, §7, §8, §9, §10

Enterococcus faecalis = assay: Antimicrobial screening, resazurine test; type: cell-based; settings: for inhibition at 25 µg/mL / inhibition at 50 µg/mL / inhibition at 100 µg/mL: Enterococcus faecalis, read-out: Inhibition of the microorganism
Experimental: as §1, §2, §3, §4, §5, §6, §7, §8, §9, §10

Bacillus cereus = assay: Antimicrobial screening, resazurine test; type: cell-based; settings: for inhibition at 25 µg/mL / inhibition at 50 µg/mL / inhibition at 100 µg/mL: Bacillus cereus
Experimental: as §1, §2, §3, §4, §5, §6, §7, §8, §9, §10

[2] = Self-assembly by UV-VIS spectrometry in methanol/water mixtures; type: physicochemical; settings: 0-140 h
Experimental: The self-assembly of the selected compounds 8a, 12a, 8b, 12b, 4c, 6c, 6d, and 8d was measured using UV absorption in methanol/water mixtures with a constant concentration of the studied compound for 7 days in one-hour intervals on the first day, and in 24 h intervals all following days. The stock solutions of the studied compounds were prepared at a concentration of 1 mg·mL^−1 in water. Then, a series of methanol/water mixtures were prepared starting from a methanol/water ratio 100/0 down to 0/100 in 20% steps. The stock solutions of the studied compounds (0.15 mL) were added separately to each vial containing methanol/water mixtures (3 mL), and the UV spectra were recorded in the wavelength range of 200–400 nm. […] For the compounds 8a, 12a, 12b and 6d, the details are presented in the Supplementary Material; see Figure S2.
Supramolecular self-assembly was studied on the basis of the UV-VIS spectra of the compounds in several methanol/water mixtures stepwise during the time interval 0-140 h. Here we show compounds 8a, 12a, 12b and 6d as examples, with which the irregularities in the UV-VIS spectra were either well pronounced (8a and 12a; Figure S2), or no substantial irregularity was detected (12b and 6d).
Figure S2. UV-VIS spectra of 8a (top) and 12a (bottom) measured in the interval 0-140 h.
During that time interval a new maximum appeared at 300 nm wavelength, and the shape of the curves is different than in any of the other intervals of measurement. […]

[3] = P. aeruginosa, c = 25 µg·mL-1, read-out: Inhibition of the microorganism
[4] = P. aeruginosa, c = 50 µg·mL-1, read-out: Inhibition of the microorganism
[5] = P. aeruginosa, c = 100 µg·mL-1, read-out: Inhibition of the microorganism
[6] = B. cereus, c = 25 µg·mL-1, read-out: Inhibition of the microorganism
[7] = B. cereus, c = 50 µg·mL-1, read-out: Inhibition of the microorganism
[8] = B. cereus, c = 100 µg·mL-1, read-out: Inhibition of the microorganism
[9] = read-out: Inhibition of the microorganism

Structure (SMILES)	inhibition at 25 µg/mL (Staphylococcus aureus; S. aureus, c = 25 µg·mL-1)	inhibition at 50 µg/mL (Staphylococcus aureus; S. aureus, c = 50 µg·mL-1)	inhibition at 100 µg/mL (Staphylococcus aureus; S. aureus, c = 100 µg·mL-1)	inhibition at 25 µg/mL (Pseudomonas aeruginosa; [3])	inhibition at 50 µg/mL (Pseudomonas aeruginosa; [4])	inhibition at 100 µg/mL (Pseudomonas aeruginosa; [5])	inhibition at 25 µg/mL (Escherichia coli; E. coli, c = 25 µg·mL-1)	inhibition at 50 µg/mL (Escherichia coli; E. coli, c = 50 µg·mL-1)	inhibition at 100 µg/mL (Escherichia coli; E. coli, c = 100 µg·mL-1)	inhibition at 25 µg/mL (Enterococcus faecalis; E. faecalis, c = 25 µg·mL-1)	inhibition at 50 µg/mL (Enterococcus faecalis; E. faecalis, c = 50 µg·mL-1)	inhibition at 100 µg/mL (Enterococcus faecalis; E. faecalis, c = 100 µg·mL-1)	inhibition at 25 µg/mL (Bacillus cereus; [6])	inhibition at 50 µg/mL (Bacillus cereus; [7])	inhibition at 100 µg/mL (Bacillus cereus; [8])	further results
CC1(C)C=C2[C@H]3CC[C@@H]4[C@@]5(C)CCC(=O)C(C)(C)[C@@H]5CC[C@@]4(C)[C@]3(C)CC[C@@]2(C(=O)NCCOCCOCCOCCn2cc(CO[C@H]3CC[C@]4(C)[C@H]5CC=C6C7CC(C)(C)CC[C@]7(C(=O)O)CC[C@@]6(C)[C@]5(C)CC[C@H]4C3(C)C)nn2)CC1 (stereo partly drawn) [6c]	13 ± 2%	51 ± 7.7%	27 ± 4%	12 ± 1.8%	69 ± 10.4%	60 ± 9%	10 ± 1.5%	18 ± 2.7%	30 ± 4.5%	0 to 1%	25 ± 3.8%	36 ± 5.4%	7 ± 1%	19 ± 2.9%	13 ± 2%	Gel formation [1]: produced a gel in glycerol
CC1(C)CC[C@]2(C(=O)O)CC[C@]3(C)C(=CC[C@@H]4[C@@]5(C)CC[C@H](OCc6cn(CCOCCOCCOCCNC(=O)[C@]78CCC(C)(C)CC7C7=CC[C@@H]9[C@@]%10(C)CC[C@H](OCc%11cn(CCOCCOCCOCCNC(=O)[C@]%12%13CCC(C)(C)CC%12C%12=CC[C@@H]%14[C@@]%15(C)CC[C@H](O)C(C)(C)[C@@H]%15CC[C@@]%14(C)[C@]%12(C)CC%13)nn%11)C(C)(C)[C@@H]%10CC[C@@]9(C)[C@]7(C)CC8)nn6)C(C)(C)[C@@H]5CC[C@]43C)C2C1 (stereo partly drawn) [12a]																Irregularity in UV-VIS spectra (self-assembly) [2]: Irregularities were detected
CC1(C)C=C2[C@H]3CC[C@@H]4[C@@]5(C)CCC(=O)C(C)(C)[C@@H]5CC[C@@]4(C)[C@]3(C)CC[C@@]2(C(=O)O)CC1 [1c, moronic acid, reference compound]	0 to 1%	3 ± 0.5%	10 ± 1.5%	0 to 1%	0 to 1%	0 to 1%	0 to 1%	0 to 1%	0 to 1%	0 to 1%	0 to 1%	0 to 1%	0 to 1%	15 ± 2.3%	66 ± 9.9%	
CN(C)[C@@H]1C(O)=C(C(N)=O)C(=O)[C@@]2(O)C(O)=C3C(=O)c4c(O)cccc4[C@@](C)(O)[C@H]3C[C@@H]12 [tetracycline, reference compound]													99%			
CN[C@H](CC(C)C)C(=O)N[C@H]1C(=O)N[C@@H](CC(N)=O)C(=O)N[C@H]2C(=O)N[C@H]3C(=O)N[C@H](C(=O)N[C@H](C(=O)O)c4cc(O)cc(O)c4-c4cc3ccc4O)[C@H](O)c3ccc(c(Cl)c3)Oc3cc2cc(c3O[C@@H]2O[C@H](CO)[C@@H](O)[C@H](O)[C@H]2O[C@H]2C[C@](C)(N)[C@H](O)[C@H](C)O2)Oc2ccc(cc2Cl)[C@H]1O [vancomycin, reference compound]																inhibition at 25 µg/mL (Staphylococcus aureus): 99%; inhibition at 25 µg/mL (Enterococcus faecalis): 99%
CC1(C)CC[C@]2(C(=O)O)CC[C@]3(C)C(=CC[C@@H]4[C@@]5(C)CC[C@H](O)C(C)(C)[C@@H]5CC[C@]43C)[C@@H]2C1 [1a, Oleanolic acid, reference compound]	0 to 1%	8 ± 1.2%	33 ± 5%	0 to 1%	0 to 1%	0 to 1%	0 to 1%	0 to 1%	0 to 1%	> 87%	90 ± 13.5%	89 ± 13.4%	> 77%	77 ± 11.6%	77 ± 11.6%	Inhibition of the microorganism (Enterococcus faecalis; E. faecalis, c = 25 µg·mL-1): 87 ± 13.0%; Inhibition of the microorganism (Bacillus cereus; B. cereus, c = 25 µg·mL-1): 76 ± 11.4%
CC1(C)C=C2[C@H]3CC[C@@H]4[C@@]5(C)CC[C@H](O)C(C)(C)[C@@H]5CC[C@@]4(C)[C@]3(C)CC[C@@]2(C(=O)O)CC1 [1b, morolic acid, reference compound]																inhibition at 25 µg/mL (Staphylococcus aureus): 21 ± 3.2%; inhibition at 50 µg/mL (Staphylococcus aureus): 17 ± 2.6%; inhibition at 100 µg/mL (Staphylococcus aureus): 47 ± 7%; inhibition at 25 µg/mL (Pseudomonas aeruginosa; [9]): 0 to 1%; inhibition at 50 µg/mL (Pseudomonas aeruginosa; [9]): 0 to 1%; inhibition at 100 µg/mL (Pseudomonas aeruginosa; [9]): 0 to 1%; inhibition at 25 µg/mL (Escherichia coli): 0 to 1%; inhibition at 50 µg/mL (Escherichia coli): 2 ± 0.3%; inhibition at 100 µg/mL (Escherichia coli): 0 to 1%; inhibition at 25 µg/mL (Enterococcus faecalis): 38 ± 5.7%; inhibition at 50 µg/mL (Enterococcus faecalis): 64 ± 9.6%; inhibition at 100 µg/mL (Enterococcus faecalis): 69 ± 10.4%; Inhibition of the microorganism (Bacillus cereus; B. cereus, c = 25 µg·mL-1): 78 ± 11.7%; inhibition at 25 µg/mL (Bacillus cereus; read-out: Inhibition of the microorganism, B. cereus, c = 25 µg·mL-1): > 77%; inhibition at 50 µg/mL (Bacillus cereus; read-out: Inhibition of the microorganism, B. cereus, c = 50 µg·mL-1): 76 ± 11.4%; inhibition at 100 µg/mL (Bacillus cereus; read-out: Inhibition of the microorganism, B. cereus, c = 100 µg·mL-1): 75 ± 11.3%
CC1(C)C=C2C3CC[C@@H]4[C@@]5(C)CC[C@H](OCc6cn(CCOCCOCCOCCNC(=O)[C@]78CCC(C)(C)C=C7C7CC[C@@H]9[C@@]%10(C)CC[C@H](OCc%11cn(CCOCCOCCOCCNC(=O)[C@]%12%13CCC(C)(C)C=C%12C%12CC[C@@H]%14[C@@]%15(C)CC[C@H](O)C(C)(C)[C@@H]%15CC[C@@]%14(C)[C@]%12(C)CC%13)nn%11)C(C)(C)[C@@H]%10CC[C@@]9(C)[C@]7(C)CC8)nn6)C(C)(C)[C@@H]5CC[C@@]4(C)[C@]3(C)CC[C@@]2(C(=O)O)CC1 (stereo partly drawn) [12b]																Irregularity in UV-VIS spectra (self-assembly) [2]: No substantial irregularity was detected
CC1(C)C=C2C3CC[C@@H]4[C@@]5(C)CC[C@H](OCc6cn(CCOCCOCCOCCNC(=O)[C@]78CCC(C)(C)C=C7C7CC[C@@H]9[C@@]%10(C)CC[C@H](O)C(C)(C)[C@@H]%10CC[C@@]9(C)[C@]7(C)CC8)nn6)C(C)(C)[C@@H]5CC[C@@]4(C)[C@]3(C)CC[C@@]2(C(=O)O)CC1 (stereo partly drawn) [8b]	0 to 1%	24 ± 3.6%	77 ± 11.6%	33 ± 5%	59 ± 8.9%	60 ± 9%	17 ± 2.6%	25 ± 3.8%	31 ± 4.7%	20 ± 3%	43 ± 6.5%	54 ± 8.1%	16 ± 2.4%	38 ± 5.7%	0 to 1%	
